Reference: patent US20230031406A1, “COMPOUNDS AND COMPOSITIONS FOR TREATING CONDITIONS ASSOCIATED WITH NLRP ACTIVITY” (Novartis AG, priority 2018, published 2023)
Like-named read-outs stand apart in the source and are kept apart here.

Test system: PMA-differentiated THP-1 cells
Test: IL-1β production in PMA-differentiated THP-1 cells stimulated with gramicidin (hTHP-1 assay containing 2% fetal bovine serum; Procedures 1 and 2)
Format: cell-based, human
Settings: 2% fetal bovine serum
In short: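 PMA 20 ng/ml 16-18 h → trypsinise → 50,000 cells/well, RPMI/2% FBS; cpd 1 h (11-pt, 100–0.0017 μM; DMSO 0.37%); gramicidin 5 μM, 2 h; spin; supernatant IL-1β via HTRF.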

[1] = Homo sapiens, THP-1, Table B3, hTHP-1 assay, class symbols, read-out: IC50
[2] = Homo sapiens, THP-1, Table B1, numeric bounds, read-out: Average IC50 of compounds in hTHP-1 assay: hTHP-1 IC50
[3] = Homo sapiens, THP-1, Table B2, class symbols, read-out: hTHP-1 IC50

Work on CC1(C)CCc2c1nc1c(c2NC(=O)N=S(N)(=O)c2cnc(C(C)(CO)CO)s2)CCC1 (centres unmarked) [Example 604, 2-(1,3-Dihydroxy-2-methylpropan-2-yl)-N′-((3,3-dimethyl-1,2,3,5,6,7-hexahydrodicyclopenta[b,e]pyridin-8-yl)carbamoyl)thiazole-5-sulfonimidamide] yielded an IC50 [1] of 40 to 200 nM.
In the case of CC1CCc2c1nc1c(c2NC(=O)N=S(N)(=O)c2ccn(C(C)C)n2)CCC1 (single isomer, unassigned) [Compound 129aa, (R,R) or (R,S)-1-isopropyl-N′-((3-methyl-1,2,3,5,6,7-hexa-hydrodicyclo-penta[b,e]pyridin-8-yl)carbamoyl)-1H-pyrazole-3-sulfonimidamide], the IC50 (Table B1, class symbols, read-out: Average IC50 of compounds in hTHP-1 assay: hTHP-1 IC50) is reported as 40 to 200 nM.
Work on Cc1nc(C(C)(C)O)ccc1S(N)(=O)=NC(=O)Nc1c2c(nc3c1CCC3)CCC2 (single isomer, unassigned) [Compound 157a, (S) or (R)-N′-((1,2,3,5,6,7-hexahydrodicyclo-penta[b,e]pyridin-8-yl)carbamoyl)-6-(2-hydroxypropan-2-yl)-2-methylpyridine-3-sulfonimidamide] yielded an IC50 [2] greater than 30000 nM.
In the case of CC(C)(O)c1ccc(S(N)(=O)=NC(=O)Nc2c3c(nc4c2CCC4)CCC3)cc1 (single isomer, unassigned) [Compound 633b, (R) or (S)-N′-((1,2,3,5,6,7-hexahydrodicyclopenta [b,e]pyridin-8-yl)carbamoyl)-4-(2-hydroxypropan-2-yl)benzene-sulfonimidamide], the IC50 [3] is reported as 5000 to 30000 nM.
Compound CC(C)n1cc(CO)c(S(N)(=O)=NC(=O)Nc2c3c(nc4c2CCC4(C)C)CCC3)n1 (single isomer, unassigned) [Compound 682b, (R) or (S)-N′-((3,3-dimethyl-1,2,3,5,6,7-hexahydrodicyclopenta [b,e]pyridin-8-yl)carbamoyl)-4-(hydroxymethyl)-1-isopropyl-1H-pyrazole-3-sulfonimidamide] has an IC50 [3] of 1000 to 5000 nM.
Work on CC1(C)CCc2c1nc1c(c2NC(=O)N=S(N)(=O)c2ccn(C(F)F)n2)CCC1 (centres unmarked) [Compound 122, 1-(difluoromethyl)-N′-((3,3-dimethyl-1,2,3,5,6,7-hexahydrodicyclopenta[b,e]pyridin-8-yl)carbamoyl)-1H-pyrazole-3-sulfonimidamide] yielded an IC50 (Homo sapiens, THP-1, Table B1, class symbols, read-out: Average IC50 of compounds in hTHP-1 assay: hTHP-1 IC50) of 200 to 1000 nM.
Work on NS(=O)(=NC(=O)Nc1c2c(nc3c1CCC31CC1)CCC2)c1cnn(C(F)F)c1 (single isomer, unassigned) [Compound 638b, (S) or (R)-1-(Difluoromethyl)-N′-((1′,5′,6′,7′-tetrahydro-2′H-spiro[cyclopropane-1,3′-dicyclopenta[b,e]pyridin]-8′-yl)carbamoyl)-1H-pyrazole-4-sulfonimidamide] yielded an IC50 (Homo sapiens, THP-1, Table B2, numeric bounds, read-out: hTHP-1 IC50) greater than 30000 nM.
In the case of NS(=O)(=NC(=O)Nc1c2c(nc(C3CC3)c1C1CC1)CCC2)c1nn(C(F)F)cc1F (centres unmarked) [Example 737, N′-((2,3-dicyclopropyl-6,7-dihydro-5H-cyclopenta[b]pyridin-4-yl)carbamoyl)-1-(difluoromethyl)-4-fluoro-1H-pyrazole-3-sulfonimidamide], the IC50 (Homo sapiens, THP-1, Table B4, class symbols, read-out: hTHP-1 IC50) is reported as 200 to 1000 nM.
Compound NS(=O)(=NC(=O)Nc1c2c(nc3c1CCC31CC1)CCC2)c1nn(C(F)F)cc1F (centres unmarked) [Example 569, 1-(Difluoromethyl)-4-fluoro-N′-((1′,5′,6′,7′-tetrahydro-2′H-spiro[cyclopropane-1,3′-dicyclopenta[b,e]pyridin]-8′-yl)carbamoyl)-1H-pyrazole-3-sulfonimidamide] has an IC50 [1] of 200 to 1000 nM.
CC(C)c1ncc(F)c(C(C)C)c1NC(=O)N=S(N)(=O)c1ccc(CN(C)C)cc1 (centres unmarked) [Compound 132, 4-((dimethylamino)methyl)-N′-((5-fluoro-2,4-diisopropylpyridin-3-yl)carbamoyl)benzenesulfon-imidamide] gave an IC50 [2] greater than 27000 nM.
In the case of CC(C)n1nc(S(N)(=O)=NC(=O)Nc2c3c(nc4c2CC[C@H]4C)CCC3)cc1CO (stereo partly drawn) [Example 596, 5-(Hydroxymethyl)-1-isopropyl-N-(((R)-3-methyl-1,2,3,5,6,7-hexahydrodicyclopenta[b,e]pyridin-8-yl)carbamoyl)-1H-pyrazole-3-sulfonimidamide], the IC50 [1] is reported as 1000 to 5000 nM.
